# Columns and labels:
# KB = test: Cytotoxicity against human KB cells; format: functional; settings: read-out: ED50 (the source's name)
# P388 = test: In vivo cytotoxicity against mouse P388 cells at 0.4 to 12.5 mg/kg; format: functional; settings: dose mg/kg 0.4-12.5
structure (smiles),measurement,setting,value
COc1cc2cc(c1Cl)NC(=O)C[C@H](OC(=O)[C@H](C)N(C)C(=O)C1C(C)C1C)[C@]1(C)O[C@H]1[C@H](C)[C@@H]1C[C@@](O)(NC(=O)O1)[C@H](OC)/C=C/C=C(\C)C2 (some centres not stated) [NORMAYTANCYPRINE],EC50,KB,0.001 ng/mL
same,T/C,P388,145%
